From ChEMBL document CHEMBL1128995, “Synthesis and antitumor activity of (2R,3R)-2,3-dihydroxy- and -2,3-dialkoxy-1,4-diaminobutane platinum(II) complexes” (Bioorg Med Chem Lett, 1996)
“And” between values parts separate entries of the source, which are not always exact repeats. Equal entries are not always repeated.

Assays:
Assay type in all cases: functional, organism-based
Conditions in all cases: Mus musculus
L1210 [1] = assay: Compound was tested for antitumor activity against L1210 Leukemia in mice at 25 mg/kg dose upon intraperitoneal administration; design: dose 25 mg/kg
L1210 [2] = assay: Compound was tested for antitumor activity against L1210 Leukemia in mice at 12.5 mg/kg dose upon intraperitoneal administration; design: dose 12.5 mg/kg
L1210 [3] = assay: Compound was tested for antitumor activity against L1210 Leukemia in mice at 6.25 mg/kg dose upon intraperitoneal administration; design: dose 6.25 mg/kg
L1210 [4] = assay: Compound was tested for antitumor activity against L1210 Leukemia in mice at 50 mg/kg dose upon intraperitoneal administration: Toxic; design: dose 50 mg/kg
L1210 [5] = assay: Compound was tested for antitumor activity against L1210 Leukemia in mice at 100 mg/kg dose upon intraperitoneal administration; design: dose 100 mg/kg
L1210 [6] = assay: Compound was tested for antitumor activity against L1210 Leukemia in mice at 25 mg/kg dose upon intraperitoneal administration: Toxic; design: dose 25 mg/kg
L1210 [7] = assay: Compound was tested for antitumor activity against L1210 Leukemia in mice at 50 mg/kg dose upon intraperitoneal administration; design: dose 50 mg/kg
L1210 [8] = assay: Compound was tested for antitumor activity against L1210 Leukemia in mice at 1.5 mg/kg dose upon intraperitoneal administration; design: dose 1.5 mg/kg
L1210 [9] = assay: Compound was tested for antitumor activity against L1210 Leukemia in mice at 12.5 mg/kg dose upon intraperitoneal administration: Toxic; design: dose 12.5 mg/kg
L1210 [10] = assay: Compound was tested for antitumor activity against L1210 Leukemia in mice at 3.1 mg/kg dose upon intraperitoneal administration; design: dose 3.1 mg/kg

Which results are given for “(2R,3R)-2,3-dihydroxy-1,4-diaminobutane Platinum (II) complex”?
T/C (L1210 [1]): 148%; T/C (L1210 [2]): 118% and 131%; T/C (L1210 [3]): 125% and 135%; Activity (L1210 [4]): Toxic; T/C (L1210 [5]): 195%; Activity (L1210 [6]): Toxic

For CARBOPLATIN, which T/C (L1210 [1]) is on record?
Its T/C is 148%.

And the T/C (L1210 [7])?
The T/C was 196%.

What about the T/C (L1210 [2]) of the same substance?
The T/C was 125%.

What about the T/C (L1210 [3]) of the same substance?
Its T/C is 107%.

What about the T/C (L1210 [5]) of the same substance?
Its T/C is 197%.

Which results are given for CISPLATIN?
T/C (L1210 [8]): 142%; Activity (L1210 [9]): Toxic; T/C (L1210 [10]): 167%; T/C (L1210 [3]): 82%; Activity (L1210 [6]): Toxic
